# Biological target: Cystic fibrosis transmembrane conductance regulator (Rattus norvegicus) (UniProt P34158)
# Experiment: Percent activity against CFTR (cystic fibrosis transmembrane conductance regulator) in rat relative to UCCF-152(50 uM)
# Cystic fibrosis transmembrane conductance regulator (Rattus norvegicus), sequence (P34158 whole entry): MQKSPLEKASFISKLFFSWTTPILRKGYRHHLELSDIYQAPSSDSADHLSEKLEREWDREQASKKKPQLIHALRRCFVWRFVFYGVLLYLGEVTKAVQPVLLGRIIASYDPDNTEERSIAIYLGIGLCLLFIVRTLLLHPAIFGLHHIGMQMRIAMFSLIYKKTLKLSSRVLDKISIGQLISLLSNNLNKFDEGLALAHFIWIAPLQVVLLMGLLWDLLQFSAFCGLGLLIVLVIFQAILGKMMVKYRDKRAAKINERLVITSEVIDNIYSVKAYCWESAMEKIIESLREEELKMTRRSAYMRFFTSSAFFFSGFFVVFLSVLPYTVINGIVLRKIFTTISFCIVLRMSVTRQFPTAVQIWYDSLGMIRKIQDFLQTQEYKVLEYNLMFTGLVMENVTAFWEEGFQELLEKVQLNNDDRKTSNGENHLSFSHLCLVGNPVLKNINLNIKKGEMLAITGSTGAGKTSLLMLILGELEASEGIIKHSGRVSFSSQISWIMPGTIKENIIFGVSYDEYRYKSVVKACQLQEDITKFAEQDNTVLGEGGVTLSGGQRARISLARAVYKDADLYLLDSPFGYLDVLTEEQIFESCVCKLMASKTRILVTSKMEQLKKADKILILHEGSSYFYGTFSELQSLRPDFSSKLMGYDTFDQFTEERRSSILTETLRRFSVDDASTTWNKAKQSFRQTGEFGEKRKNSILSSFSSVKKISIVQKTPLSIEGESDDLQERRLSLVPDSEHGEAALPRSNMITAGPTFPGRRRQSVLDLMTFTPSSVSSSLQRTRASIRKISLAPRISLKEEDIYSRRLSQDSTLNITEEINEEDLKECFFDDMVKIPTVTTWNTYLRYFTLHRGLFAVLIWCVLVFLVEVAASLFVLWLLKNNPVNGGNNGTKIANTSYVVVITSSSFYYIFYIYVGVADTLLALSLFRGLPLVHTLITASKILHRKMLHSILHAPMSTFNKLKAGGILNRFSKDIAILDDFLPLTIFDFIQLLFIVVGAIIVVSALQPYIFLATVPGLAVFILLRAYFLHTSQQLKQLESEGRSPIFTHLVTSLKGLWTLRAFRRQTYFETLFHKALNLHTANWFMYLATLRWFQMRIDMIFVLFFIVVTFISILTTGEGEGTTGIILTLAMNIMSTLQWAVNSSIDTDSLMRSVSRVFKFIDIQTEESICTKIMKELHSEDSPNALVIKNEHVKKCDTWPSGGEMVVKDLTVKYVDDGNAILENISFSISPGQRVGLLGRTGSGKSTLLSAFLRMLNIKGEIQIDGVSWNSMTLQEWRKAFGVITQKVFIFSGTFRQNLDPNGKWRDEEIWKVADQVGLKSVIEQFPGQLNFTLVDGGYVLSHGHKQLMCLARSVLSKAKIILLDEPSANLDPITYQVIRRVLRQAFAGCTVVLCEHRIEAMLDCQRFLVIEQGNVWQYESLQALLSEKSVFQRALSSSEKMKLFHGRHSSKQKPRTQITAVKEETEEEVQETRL
row,Structure (SMILES),Activity [%]
1,COC(=O)C1CC(c2ccccc2OCc2cccc(OC)c2)=NO1 (configuration not stated),29
2,COc1ccc(COc2ccccc2C2=NOC(CCl)C2)cc1 (configuration not stated),61
3,COc1cccc(COc2ccccc2C2=NOC(CO)C2)c1 (configuration not stated),29
4,COCc1cc(-c2ccccc2OCc2ccc(Br)cc2)no1,10
5,COc1ccc(COc2ccccc2C2=NOC(CO)C2)cc1 (configuration not stated),63
6,COC(=O)c1onc(-c2ccccc2OCc2ccc(Br)cc2)c1C(=O)OC,21
7,ClCc1cc(-c2ccccc2OCc2ccc(Br)cc2)no1,25
8,COc1ccccc1-c1cc(CCl)on1,8
9,COC(=O)C1CC(c2cc(Br)ccc2OCc2ccc(OC)cc2)=NO1 (configuration not stated),41
10,COc1ccc(COc2ccccc2-c2cc(CCO)on2)cc1,46
11,COc1ccc(COc2ccc(Br)cc2-c2cc(CCl)on2)cc1,9
12,COc1ccc(COc2ccc(Br)cc2-c2cc(CO)on2)cc1,30
13,COc1ccc(COc2ccccc2-c2cc(CCl)on2)cc1,72
14,COc1cccc(COc2ccccc2C2=NOC(CCl)C2)c1 (configuration not stated),58
15,OCCc1cc(-c2ccccc2OCc2ccc(Br)cc2)no1,106
16,OCc1cc(-c2ccccc2OCc2ccc(Br)cc2)no1,39
17,COc1ccc(COc2cccc(-c3cc(CCl)on3)c2)cc1,2
18,COC(=O)C1CC(c2ccccc2OCc2ccc(OC)cc2)=NO1 (configuration not stated),64
19,COc1ccc(COc2ccc(-c3cc(CCl)on3)cc2)cc1,3
20,CCCCc1cc(-c2ccccc2OCc2ccc(OC)cc2)no1,8
21,COC(=O)C1CC(c2ccccc2OCc2ccc(Br)cc2)=NO1 (configuration not stated),48
22,COC(=O)c1cc(-c2ccccc2OCc2ccc(Br)cc2)no1,32
23,COc1cccc(COc2ccccc2-c2cc(CO)on2)c1,45
24,COc1ccccc1-c1cc(CO)on1,22
25,COc1ccc(COc2ccccc2-c2cc(CO)on2)cc1,45
26,COc1cccc(COc2ccccc2-c2cc(CCO)on2)c1,31

# Biological target: Cystic fibrosis transmembrane conductance regulator (Rattus norvegicus) (UniProt P34158)
# Experiment: Percent activity against CFTR (cystic fibrosis transmembrane conductance regulator) in rat relative to genistein(50 uM)
row,Structure (SMILES),Activity [%]
1,ClCc1cc(-c2ccccc2OCc2ccccc2)no1,55

# Source: ChEMBL document CHEMBL1136128, “3-(2-Benzyloxyphenyl)isoxazoles and isoxazolines: synthesis and evaluation as CFTR activators” (Bioorg Med Chem Lett, 2003)
